Results published in ChEMBL document CHEMBL1137952, “Fertilin beta peptidic liposomes inhibit fertilization by steric blockage” (Bioorg Med Chem Lett, 2004).
Blank lines part the entries; values can stand above or below the compound they belong to. Active and inactive are the calls of the source. No cut-off for these calls is given here. Non-standard residues stand in square brackets, D forms with d. Residues, ends and D or L forms follow the SMILES beside them. ξ: configuration not given here. *: point of attachment. Myristoyl = CCCCCCCCCCCCCC(=O)*; Dap = NC[C@H](N)C(=O)O; ξDap = NCC(N)C(=O)O; GABA = NCCCC(=O)O

Key:
Liposome [1] = assay: Inhibition of fertilization by fertilin beta peptide (1 mol%) with 40 nm liposome, measured by average number of sperm fused /egg (FI); No inhibition uM peptide; assay type: functional, subcellular, Mus musculus
Liposome [2] = assay: Inhibition of fertilization by fertilin beta peptide (1 mol%) with 40 nm liposome, measured by number of zona-free eggs fertilized (FR); No inhibition; assay type: functional, subcellular, Mus musculus
Liposome [3] = assay: Inhibition of fertilization by fertilin beta peptide (1 mol%) with 40 nm liposome, measured by number of zona-free eggs fertilized (FR); No inhibition uM peptide; assay type: functional, subcellular, Mus musculus
Liposome [4] = assay: Maximal inhibition of fertilization by fertilin beta peptide (1 mol%) with 40 nm liposome; No inhibition; assay type: functional, subcellular; conditions: Mus musculus
Liposome [5] = assay: Inhibition of fertilization by POPC (40 or 400 nm), measured by average number of sperm fused / egg (FI); No inhibition uM; assay type: functional, Mus musculus
Liposome [6] = assay: Inhibition of fertilization by POPC (40 or 400 nm), measured by number of zona-free eggs fertilized (FR); No inhibition; assay type: functional, subcellular, Mus musculus
Liposome [7] = assay: Inhibition of fertilization by POPC (40 or 400 nm), measured by number of zona-free eggs fertilized (FR); No inhibition uM; assay type: functional, subcellular, Mus musculus
Liposome [8] = assay: Maximal inhibition of fertilization by POPC (40 or 400 nm); No inhibition; assay type: functional; conditions: Mus musculus
Liposome [9] = assay: Inhibition of fertilization by fertilin beta peptide (0.013 mol%) with 40 nm liposome, measured by number of zona-free eggs fertilized (FR); No inhibition up to 125 nm peptide; assay type: functional, Mus musculus
Liposome [10] = assay: Inhibition of fertilization by fertilin beta peptide (0.1 mol%) with 40 nm liposome, measured by average number of sperm fused per egg (FI); assay type: functional, subcellular, Mus musculus
Liposome [11] = assay: Inhibition of fertilization by fertilin beta peptide (0.1 mol%) with 40 nm liposome, measured by number of zona-free eggs fertilized (FR); assay type: functional, subcellular, Mus musculus
Liposome [12] = assay: Inhibition of fertilization by fertilin beta peptide (0.5 mol%) with 40 nm liposome, measured by average number of sperm fused per egg (FI); assay type: functional, subcellular, Mus musculus
Liposome [13] = assay: Inhibition of fertilization by fertilin beta peptide (0.5 mol%) with 40 nm liposome, measured by number of zona-free eggs fertilized (FR); assay type: functional, subcellular, Mus musculus
Liposome [14] = assay: Inhibition of fertilization by fertilin beta peptide (0.5 mol%) with 400 nm liposome, measured by average number of sperm fused per egg (FI); assay type: functional, subcellular, Mus musculus
Liposome [15] = assay: Inhibition of fertilization by fertilin beta peptide (0.013 mol%) with 40 nm liposome, measured by average number of sperm fused per egg (FI); No inhibition up to 125 nm peptide; assay type: functional, Mus musculus
Liposome [16] = assay: Inhibition of fertilization by fertilin beta peptide (0.013 mol%) with 40 nm liposome, measured by number of zona-free eggs fertilized (FR); No inhibition; assay type: functional, subcellular, Mus musculus
Liposome [17] = assay: Inhibition of fertilization by fertilin beta peptide (0.5 mol%) with 400 nm liposome, measured by number of zona-free eggs fertilized (FR); assay type: functional, subcellular, Mus musculus
Liposome [18] = assay: Inhibition of fertilization by fertilin beta peptide (1 mol%) with 40 nm liposome, measured by average number of sperm fused per egg (FI); assay type: functional, subcellular, Mus musculus
Liposome [19] = assay: Inhibition of fertilization by fertilin beta peptide (1 mol%) with 40 nm liposome, measured by number of zona-free eggs fertilized (FR); assay type: functional, subcellular, Mus musculus
Liposome [20] = assay: Inhibition of fertilization by fertilin beta peptide (5 mol%) with 40 nm liposome, measured by average number of sperm fused per egg (FI); assay type: functional, subcellular, Mus musculus
Liposome [21] = assay: Inhibition of fertilization by fertilin beta peptide (5 mol%) with 40 nm liposome, measured by number of zona-free eggs fertilized (FR); assay type: functional, subcellular, Mus musculus
Liposome [22] = assay: Maximal inhibition of fertilization by fertilin beta peptide (0.5 mol%) with 40 nm liposome; assay type: functional, subcellular; conditions: Mus musculus
Liposome [23] = assay: Maximal inhibition of fertilization by fertilin beta peptide (1 mol%) with 40 nm liposome; assay type: functional, subcellular; conditions: Mus musculus
Liposome [24] = assay: Inhibition of fertilization by fertilin beta peptide, measured by average number of sperm fused / egg (FI); assay type: functional, Mus musculus
Liposome [25] = assay: Inhibition of fertilization by fertilin beta peptide, measured by number of zona-free eggs fertilized (FR); assay type: functional, subcellular, Mus musculus
Liposome [26] = assay: Maximal inhibition of fertilization by fertilin beta peptide; assay type: functional, subcellular; conditions: Mus musculus

IC50 (Liposome [1]): Not Active
IC50 (Liposome [2]): Not Active
IC50 (Liposome [3]): Not Active
Structure (SMILES): CCCCCCCCCCCCCC(=O)NCC(NC(=O)CCCCCCCCCCCCC)C(=O)NCCCC(=O)N[C@@H](CC(=O)O)C(=O)N[C@@H](Cc1ccc(O)cc1)C(=O)N[C@@H](CCC(=O)O)C(=O)N[C@H](C(=O)N[C@@H](CCC(=O)O)C(=O)N[C@@H](CCC(N)=O)C(=O)N[C@@H](C)C(=O)N[C@@H](CS)C(=O)N[C@H](C(=O)N[C@@H](CC(N)=O)C(=O)O)[C@@H](C)O)C(C)C (stereo not given in full) (Myristoyl-[ξDap](Myristoyl)[GABA]DYEVEQACTN-OH)
Max inhibition (Liposome [4]): inactive

IC50 (Liposome [5]): Not Active
IC50 (Liposome [6]): Not Active
IC50 (Liposome [7]): Not Active
Structure (SMILES): CCCCCCCC/C=C\CCCCCCCC(=O)OC(COC(=O)CCCCCCCCCCCCCCC)COP(=O)([O-])OCC[N+](C)(C)C (stereo not given)
Max inhibition (Liposome [8]): inactive

IC50 (Liposome [9]): Not Active
IC50 (Liposome [10]): 500 nM
IC50 (Liposome [11]): 500 nM
IC50 (Liposome [12]): 500 nM
IC50 (Liposome [13]): 2800000000000 liposomes ml-1
IC50 (Liposome [13]; read-out: IC50): 340 nM
IC50 (Liposome [14]): 920 nM
IC50 (Liposome [15]): Not Active
IC50 (Liposome [16]): Not Active
IC50 (Liposome [17]): 59000000000 liposomes ml-1
IC50 (Liposome [17]; read-out: IC50): 750 nM
IC50 (Liposome [18]): 2400 nM
IC50 (Liposome [19]): 11000000000000 liposomes ml-1
IC50 (Liposome [19]; read-out: IC50): 2500 nM
IC50 (Liposome [20]): 5000 nM
IC50 (Liposome [21]): 4200000000000 liposomes ml-1
IC50 (Liposome [21]; read-out: IC50): 5000 nM
Structure (SMILES): CCCCCCCCCCCCCC(=O)NCC(NC(=O)CCCCCCCCCCCCC)C(=O)NCCCC(=O)N[C@@H](C)C(=O)N[C@@H](CCC(N)=O)C(=O)N[C@@H](CC(=O)O)C(=O)N[C@@H](CCC(=O)O)C(=O)N[C@@H](CS)C(=O)N[C@@H](CC(=O)O)C(=O)N[C@H](C(=O)N[C@H](C(=O)N[C@@H](CCC(=O)O)C(=O)N[C@@H](Cc1ccc(O)cc1)C(N)=O)[C@@H](C)O)C(C)C (stereo not given in full) (Myristoyl-[ξDap](Myristoyl)[GABA]AQDECDVTEY-NH2)
Max inhibition (Liposome [22]): 93%
Max inhibition (Liposome [23]): 97%

IC50 (Liposome [24]): 524000 nM
IC50 (Liposome [25]): 500000 nM
Structure (SMILES): CC(=O)NC[C@H](NC(C)=O)C(=O)NCCCC(=O)N[C@@H](C)C(=O)N[C@@H](CCC(N)=O)C(=O)N[C@@H](CC(=O)O)C(=O)N[C@@H](CCC(=O)O)C(=O)N[C@@H](CS)C(=O)N[C@@H](CC(=O)O)C(=O)N[C@H](C(=O)N[C@H](C(=O)N[C@@H](CCC(=O)O)C(=O)N[C@@H](Cc1ccc(O)cc1)C(N)=O)[C@@H](C)O)C(C)C (Ac-[Dap](Ac)[GABA]AQDECDVTEY-NH2)
Max inhibition (Liposome [26]): 71%
